Measurements published in patent publication US8362000B2, “Azetidinyl diamides as monoacylglycerol lipase inhibitors” (Janssen Pharmaceutica NV, priority 2009, dated 2013).
Residue numbers refer to the chain shown, from its start. pIC50, pKd: −log10 of the molar value. Like-named read-outs stand apart in the source and are kept apart here.

Assays:
mutant MGL = target: T1, mutant MGL (Homo sapiens, UniProt Q99685, L169S/L176S); test: MGL ThermoFluor assay - mutant; format: binding; details: for Kd: read-out: MGL mutant ThermoFluor qKd (μM) (using qNMR conc.)
T1 sequence (Q99685 1-303 L169S/L176S): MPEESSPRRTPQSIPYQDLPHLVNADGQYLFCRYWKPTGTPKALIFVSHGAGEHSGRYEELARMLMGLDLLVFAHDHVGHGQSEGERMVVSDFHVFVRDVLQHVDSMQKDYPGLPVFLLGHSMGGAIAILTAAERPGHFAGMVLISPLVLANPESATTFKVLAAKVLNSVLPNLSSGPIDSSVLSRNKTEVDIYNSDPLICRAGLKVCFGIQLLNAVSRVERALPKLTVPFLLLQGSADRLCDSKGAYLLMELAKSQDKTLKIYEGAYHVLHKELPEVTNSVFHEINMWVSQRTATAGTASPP

[1] = target: T2, purified wild type MGL (wt-MGLL 6H-11-313) (Homo sapiens, UniProt Q99685)
T2 sequence (Q99685 1-303): T1 sequence (Q99685 1-303 L169S/L176S) with S169L, S176L

[2] = ThermoFluor thermal stability binding assay, read-out: MGL mutant ThermoFluor Kd
[3] = ThermoFluor concentration-response, read-out: MGL mutant ThermoFluor Kd
[4] = ThermoFluor, compound concentration measured by qNMR, read-out: MGL mutant ThermoFluor qKd (using qNMR conc.)
[5] = compound concentration measured by qNMR, read-out: MGL mutant ThermoFluor qKd (using qNMR conc.)
[6] = ThermoFluor, compound concentration measured by qNMR

| Compound | pIC50 [1] | pKd (mutant MGL; [3]) | also measured |
| --- | --- | --- | --- |
| O=C(c1nccs1)N1CCN(C2CN(C(=O)c3cccc4oc(-c5ccc(F)cc5)nc34)C2)CC1 [Cpd 1257] | 6.08 | – | pKd (mutant MGL; [2]): 8.05 |
| O=C(c1ccc(-c2cccc(C(F)(F)F)c2)cc1)N1CCN(C2CN(C(=O)c3cocn3)C2)CC1 [Cpd 1258] | 6.08 | – | pKd (mutant MGL; [2]): 7.70 |
| Cc1cc(-c2cccc(C(F)(F)F)c2)ccc1C(=O)N1CCN(C2CN(C(=O)c3nccs3)C2)CC1 [Cpd 1260] | 6.06 | 6.66 | – |
| O=C(c1cscn1)N1CCN(C2CN(C(=O)c3cc(-c4ccccc4)n(-c4ccccc4)n3)C2)CC1 [Cpd 1261] | 6.03 | – | pKd (mutant MGL; [2]): 6.08 |
| O=C(c1nccs1)N1CC(N2CCN(C(=O)c3ccc(-c4ccccc4)cc3)C(Cc3ccccc3)C2)C1 (stereo not shown) [Cpd 1266, 2-Benzyl-1-(biphenyl-4-ylcarbonyl)-4-[1-(1,3-thiazol-2-ylcarbonyl)azetidin-3-yl]piperazine] | 5.97 | 7.49 | – |
| O=C(c1ccc2[nH]c(-c3ccccc3)nc2c1)N1CCN(C2CN(C(=O)c3nccs3)C2)CC1 [Cpd 1271] | 5.80 | 6.00 | – |
| O=C(c1ccc(-c2ccccc2)cc1)N1CCN(C2CN(C(=O)c3csnn3)C2)CC1 [Cpd 1276, 1-(Biphenyl-4-ylcarbonyl)-4-[1-(1,2,3-thiadiazol-4-ylcarbonyl)azetidin-3-yl]piperazine] | 5.75 | 6.09 | – |
| O=C(c1cnc2ccn(-c3ccc(F)cc3)c2c1)N1CC(N2CCN(C(=O)c3nccs3)CC2)C1 [Cpd 1277] | 5.74 | – | Kd (mutant MGL; [6]): 2.72 µM |
| O=C(c1cscn1)N1CCN(C2CN(C(=O)c3cn(-c4cccc(F)c4)c4ccccc34)C2)CC1 [Cpd 1279] | 5.72 | – | Kd (mutant MGL; [6]): 1.86 µM |
| O=C(c1cscn1)N1CCN(C2CN(C(=O)c3cc(-c4ccccc4)ccc3F)C2)CC1 [Cpd 1280] | 5.70 | 5.19 | – |
| O=C(c1cscn1)N1CC(N2CCN(C(=O)c3ccc(-c4ccccc4)cc3)C(Cc3ccccc3)C2)C1 (stereo not shown) [Cpd 1284, 2-Benzyl-1-(biphenyl-4-ylcarbonyl)-4-[1-(1,3-thiazol-4-ylcarbonyl)azetidin-3-yl]piperazine] | 5.64 | 7.39 | – |
| O=C(c1ccc(-c2ccccc2)cc1)N1CCN(C2CN(C(=O)c3cscn3)C2)C2(CC2)C1 [Cpd 1286] | 5.62 | – | pKd (mutant MGL; [2]): 7.49 |
| Cc1nc(-c2ccccc2F)sc1C(=O)N1CC(N2CCN(C(=O)c3cscn3)CC2)C1 [Cpd 1287] | 5.61 | 6.31 | – |
| O=C(c1cscn1)N1CCN(C2CN(C(=O)c3cc(-c4ccccc4)ccc3Cl)C2)CC1 [Cpd 1288] | 5.60 | 5.67 | – |
| O=C(c1cscn1)N1CCN(C2CN(C(=O)c3cccc4[nH]c(-c5ccc(Cl)cc5)nc34)C2)CC1 [Cpd 1290] | 5.57 | – | pKd (mutant MGL; [2]): 6.19 |
| O=C(c1ccc(-c2ccccc2)cc1)N1CCN(C2CN(C(=O)c3cc[nH]c3)C2)CC1 [Cpd 1292, 1-(Biphenyl-4-ylcarbonyl)-4-[1-(1H-pyrrol-3-ylcarbonyl)azetidin-3-yl]piperazine] | 5.51 | 6.20 | – |
| O=C(c1ccc(-n2cnc3ccccc32)cc1)N1CC(N2CCN(C(=O)c3cscn3)CC2)C1 [Cpd 1293] | 5.50 | 5.78 | – |
| O=C(c1cscn1)N1CCN(C2CN(C(=O)c3cn(-c4ccc(F)cc4)c4ccccc34)C2)CC1 [Cpd 1295] | 5.48 | – | Kd (mutant MGL; [6]): 1.51 µM |
| Cc1nc2cc(C(=O)N3CC(N4CCN(C(=O)c5cscn5)CC4)C3)ccc2n1-c1ccccc1 [Cpd 1296] | 5.48 | – | pKd (mutant MGL; [5]): 6.71 |
| O=C(c1ccc(-n2cnc3ccccc32)cc1)N1CCN(C2CN(C(=O)c3nccs3)C2)CC1 [Cpd 1298] | 5.41 | 6.32 | – |
| O=C(c1ccc2[nH]c(-c3ccccc3)nc2c1)N1CC(N2CCN(C(=O)c3cscn3)CC2)C1 [Cpd 1299] | 5.41 | 5.96 | – |
| O=C(c1cnn(-c2ccccc2)n1)N1CC(N2CCN(C(=O)c3nccs3)CC2)C1 [Cpd 1300] | 5.38 | 5.48 | – |
| O=C(c1ccc(-n2ccc(C(F)(F)F)n2)cc1)N1CC(N2CCN(C(=O)c3cscn3)CC2)C1 [Cpd 1302] | 5.31 | – | pKd (mutant MGL; [2]): 5.60 |
| O=C(c1ccc(-n2cnc3ccccc32)cc1)N1CCN(C2CN(C(=O)c3cscn3)C2)CC1 [Cpd 1305] | 5.18 | 6.08 | – |
| O=C(c1ccc(-c2ccccc2)cc1)N1CC(N2CCN(C(=O)c3nccs3)CC2C(F)(F)F)C1 (stereo not shown) [Cpd 1306, 1-[1-(Biphenyl-4-ylcarbonyl)azetidin-3-yl]-4-(1,3-thiazol-2-ylcarbonyl)-2-(trifluoromethyl)piperazine] | 5.09 | – | Kd (mutant MGL; [6]): 12.2 µM |
| O=C(c1ccc(-c2ccccc2)cc1)N1CC(N2CCN(C(=O)c3c[nH]c4ccccc34)CC2)C1 [Cpd 1308] | 5.03 | – | pKd (mutant MGL; [2]): 5.69 |
| O=C(c1cn[nH]c1)N1CCN(C2CN(C(=O)c3ccc(-c4ccccc4)cc3)C2)CC1 [Cpd 1310] | 4.93 | – | pKd (mutant MGL; [2]): 5.08 |
| O=C(c1nn(-c2ccc(Cl)cc2Cl)c2c1CCCC2)N1CC(N2CCN(C(=O)C(F)(F)F)CC2)C1 [Cpd 1311] | 4.84 | – | pKd (mutant MGL; [5]): 4.17 |

Now from value to compound, other results behind:

| pIC50 [1] | pKd (mutant MGL; [3]) | Compound | also measured |
| --- | --- | --- | --- |
| 6.02 | – | O=C(c1ccc(-c2ccccc2)cc1)N1CC(N2CCN(C(=O)c3ccon3)CC2)C1 [Cpd 1262] | pKd (mutant MGL; [2]): 6.56 |
| 6.01 | – | O=C(c1ccc2c(ccn2-c2cncnc2)c1)N1CC(N2CCN(C(=O)c3nccs3)CC2)C1 [Cpd 1263, 1-Pyrimidin-5-yl-5-({3-[4-(1,3-thiazol-2-ylcarbonyl)piperazin-1-yl]azetidin-1-yl}carbonyl)-1H-indole] | pKd (mutant MGL; [4]): 6.67 |
| 6.01 | – | Cc1nc2cc(C(=O)N3CC(N4CCN(C(=O)c5cscn5)CC4)C3)ccc2n1-c1ccc(F)c(F)c1 [Cpd 1264] | pKd (mutant MGL; [5]): 6.60 |
| 5.91 | – | O=C(c1ccc(-c2ccc(C(F)(F)F)s2)cc1)N1CC(N2CCN(C(=O)c3cncs3)CC2)C1 [Cpd 1268] | pKd (mutant MGL; [5]): 7.41 |
| 5.90 | – | O=C(c1ccc(-c2ccccc2)cc1)N1CC(N2CCN(C(=O)c3c[nH]nn3)CC2)C1 [Cpd 1269] | pKd (mutant MGL; [2]): 5.93 |
| 5.79 | – | Cc1nc(-c2ccncc2)sc1C(=O)N1CC(N2CCN(C(=O)c3nccs3)CC2)C1 [Cpd 1272] | pKd (mutant MGL; [4]): 6.40 |
| 5.79 | 5.74 | O=C(c1cc(F)cc(-c2ccccc2)c1)N1CC(N2CCN(C(=O)c3cscn3)CC2)C1 [Cpd 1273] | – |
| 5.73 | 5.28 | O=C(c1cccc(-c2ccc(C(F)(F)F)cc2)c1)N1CC(N2CCN(C(=O)c3cscn3)CC2)C1 [Cpd 1278] | – |
| 5.64 | 5.61 | Cc1c(C(=O)N2CC(N3CCN(C(=O)c4cscn4)CC3)C2)cccc1-c1ccccc1 [Cpd 1285] | – |
| 5.58 | – | Cc1nc2cc(C(=O)N3CC(N4CCN(C(=O)c5cscn5)CC4)C3)ccc2n1-c1ccc(C(F)(F)F)cc1 [Cpd 1289] | pKd (mutant MGL; [5]): 6.89 |
| 5.56 | – | Cc1nc2cc(C(=O)N3CC(N4CCN(C(=O)c5cscn5)CC4)C3)ccc2n1-c1ccc(F)cc1 [Cpd 1291] | pKd (mutant MGL; [5]): 6.75 |
| 5.49 | – | O=C(c1nc2cc(-c3ccc(F)cc3)ccc2[nH]1)N1CC(N2CCN(C(=O)c3nccs3)CC2)C1 [Cpd 1294, 5-(4-Fluorophenyl)-2-({3-[4-(1,3-thiazol-2-ylcarbon-yl)piperazin-1-yl]azetidin-1-yl}carbonyl)-1H-benzimidazole] | Kd (mutant MGL; [6]): 4.41 µM |
| 5.22 | – | O=C(c1cscn1)N1CCN(C2CN(C(=O)c3nn(-c4ccc(Cl)cc4Cl)c4c3CCCC4)C2)CC1 [Cpd 1304] | pKd (mutant MGL; [5]): 5.10 |
